Our source for the EC50 values is PubChem BioAssay AID492982 (Sanford-Burnham Center for Chemical Genomics, 2010).

The target of the assay is Type-1 angiotensin II receptor (Homo sapiens) (UniProt P30556). As to the kind of experiment: AGTR1 activation selectivity check – cell-based, CHO-K1 PathHunter, luminescence, set 3, selectivity assay for APJ agonist project, SAR follow-up (AID 492982). The conditions noted are these: CHO-K1 AGTR1 PathHunter beta-arrestin, 90 min.

Active and inactive are the calls of the source.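 How the source made its calls: active means mean EC50 below 10 µM; inactive means the rest.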

Chain of Type-1 angiotensin II receptor (Homo sapiens) (P30556 whole entry, looked up): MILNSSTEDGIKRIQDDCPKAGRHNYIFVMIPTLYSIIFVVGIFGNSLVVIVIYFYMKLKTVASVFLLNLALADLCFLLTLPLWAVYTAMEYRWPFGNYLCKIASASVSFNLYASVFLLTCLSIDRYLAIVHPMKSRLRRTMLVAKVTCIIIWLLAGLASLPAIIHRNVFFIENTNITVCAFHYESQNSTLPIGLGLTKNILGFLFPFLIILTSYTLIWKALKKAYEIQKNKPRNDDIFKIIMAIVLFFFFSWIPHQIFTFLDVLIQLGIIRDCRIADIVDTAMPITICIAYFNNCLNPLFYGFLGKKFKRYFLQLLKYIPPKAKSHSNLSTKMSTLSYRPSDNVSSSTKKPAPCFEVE

As to `CC1=CC(=O)C(C(C)C)=C/C1=N/OS(=O)(=O)c1ccc(C#N)cc1`, the EC50 is > 79 µM (inactive).
The figure for `CC1=CC(=O)C(C(C)C)=C/C1=N/OS(=O)(=O)c1ccc(F)cc1` is > 79 µM (inactive).
The figure for `CC1=CC(=O)C(C(C)C)=C/C1=N/OS(=O)(=O)c1ccc(C(C)C)cc1` is > 79 µM (inactive).
